Laboratory results taken from ChEMBL document CHEMBL4308907, “Pyrrolidinone-bearing methylated and halogenated benzenesulfonamides as inhibitors of carbonic anhydrases” (Bioorg Med Chem, 2019).

Tests used:
Carbonic anhydrase 2 = Carbonic anhydrase 2 (Homo sapiens, UniProt P00918); test: Binding affinity to recombinant human CA2 by DSF-based fluorescence thermal shift assay
Carbonic anhydrase 7 = Carbonic anhydrase 7 (Homo sapiens, UniProt P43166); test: Binding affinity to recombinant human CA7 by DSF-based fluorescence thermal shift assay
Carbonic anhydrase 4 = Carbonic anhydrase 4 (Homo sapiens, UniProt P22748); test: Binding affinity to recombinant human CA4 by DSF-based fluorescence thermal shift assay
Carbonic anhydrase 9 = Carbonic anhydrase 9 (Homo sapiens, UniProt Q16790); test: Binding affinity to recombinant human CA9 by DSF-based fluorescence thermal shift assay
Carbonic anhydrase 3 = Carbonic anhydrase 3 (Homo sapiens, UniProt P07451); test: Binding affinity to recombinant N-terminal His6x-tagged human CA3 (4 to 260 residues) expressed in Escherichia coli BL21(DE3) by DSF-based fluorescence thermal shift assay
[1] = target: Carbonic anhydrase 5B, mitochondrial (Homo sapiens, UniProt Q9Y2D0); test: Binding affinity to recombinant full length N-terminal His6x-tagged human CA5B expressed in Escherichia coli Rosetta 2 (DE3) by DSF-based fluorescence thermal shift assay
Carbonic anhydrase 1 = Carbonic anhydrase 1 (Homo sapiens, UniProt P00915); test: Binding affinity to recombinant human CA1 by DSF-based fluorescence thermal shift assay
Carbonic anhydrase 12 = Carbonic anhydrase 12 (Homo sapiens, UniProt O43570); test: Binding affinity to recombinant human CA12 by DSF-based fluorescence thermal shift assay
Carbonic anhydrase 6 = Carbonic anhydrase 6 (Homo sapiens, UniProt P23280); test: Binding affinity to recombinant human CA6 by DSF-based fluorescence thermal shift assay
Carbonic anhydrase 13 = Carbonic anhydrase 13 (Homo sapiens, UniProt Q8N1Q1); test: Binding affinity to recombinant human CA13 by DSF-based fluorescence thermal shift assay
Chain of Carbonic anhydrase 13 (Q8N1Q1 whole entry): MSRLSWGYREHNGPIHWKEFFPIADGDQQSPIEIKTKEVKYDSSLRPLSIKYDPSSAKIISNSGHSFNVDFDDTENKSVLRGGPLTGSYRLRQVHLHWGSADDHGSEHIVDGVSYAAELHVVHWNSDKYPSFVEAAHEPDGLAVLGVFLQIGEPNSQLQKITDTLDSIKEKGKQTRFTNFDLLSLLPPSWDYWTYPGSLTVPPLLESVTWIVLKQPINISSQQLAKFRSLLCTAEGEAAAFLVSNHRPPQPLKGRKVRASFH

Chain of Carbonic anhydrase 6 (P23280 whole entry): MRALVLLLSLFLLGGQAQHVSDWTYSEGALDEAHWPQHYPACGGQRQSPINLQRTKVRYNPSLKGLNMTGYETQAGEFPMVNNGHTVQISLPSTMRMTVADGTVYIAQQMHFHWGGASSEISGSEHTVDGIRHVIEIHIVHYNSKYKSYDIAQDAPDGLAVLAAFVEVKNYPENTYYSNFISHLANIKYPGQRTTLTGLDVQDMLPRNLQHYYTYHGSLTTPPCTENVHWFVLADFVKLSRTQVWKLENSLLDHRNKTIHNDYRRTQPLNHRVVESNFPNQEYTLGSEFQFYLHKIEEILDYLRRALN
Chain of Carbonic anhydrase 4 (P22748 whole entry): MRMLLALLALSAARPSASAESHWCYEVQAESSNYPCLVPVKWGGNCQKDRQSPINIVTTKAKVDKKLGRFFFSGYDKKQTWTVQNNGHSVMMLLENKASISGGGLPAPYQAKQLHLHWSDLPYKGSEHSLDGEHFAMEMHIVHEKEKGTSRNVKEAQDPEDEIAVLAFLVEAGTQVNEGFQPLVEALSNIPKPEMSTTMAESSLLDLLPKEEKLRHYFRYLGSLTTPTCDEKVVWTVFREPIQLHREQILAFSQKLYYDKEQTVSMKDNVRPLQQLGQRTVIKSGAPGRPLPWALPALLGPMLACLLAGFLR
Chain of Carbonic anhydrase 7 (P43166 whole entry): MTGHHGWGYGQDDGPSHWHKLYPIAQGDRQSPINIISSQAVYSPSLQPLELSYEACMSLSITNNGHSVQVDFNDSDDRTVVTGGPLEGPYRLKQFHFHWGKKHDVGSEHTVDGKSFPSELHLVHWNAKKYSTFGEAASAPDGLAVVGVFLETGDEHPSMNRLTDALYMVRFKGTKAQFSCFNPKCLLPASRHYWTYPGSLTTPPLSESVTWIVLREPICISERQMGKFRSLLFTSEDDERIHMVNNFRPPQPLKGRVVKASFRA
Chain of Carbonic anhydrase 5B, mitochondrial (Q9Y2D0 whole entry): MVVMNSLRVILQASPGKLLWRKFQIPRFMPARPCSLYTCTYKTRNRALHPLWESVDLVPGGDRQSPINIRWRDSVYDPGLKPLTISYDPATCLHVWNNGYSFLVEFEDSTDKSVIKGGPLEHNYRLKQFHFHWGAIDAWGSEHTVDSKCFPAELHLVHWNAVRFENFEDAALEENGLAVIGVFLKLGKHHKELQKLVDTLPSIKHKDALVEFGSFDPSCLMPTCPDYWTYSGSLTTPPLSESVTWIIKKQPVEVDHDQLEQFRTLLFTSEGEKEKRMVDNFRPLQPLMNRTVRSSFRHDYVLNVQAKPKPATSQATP
Chain of Carbonic anhydrase 1 (P00915 whole entry): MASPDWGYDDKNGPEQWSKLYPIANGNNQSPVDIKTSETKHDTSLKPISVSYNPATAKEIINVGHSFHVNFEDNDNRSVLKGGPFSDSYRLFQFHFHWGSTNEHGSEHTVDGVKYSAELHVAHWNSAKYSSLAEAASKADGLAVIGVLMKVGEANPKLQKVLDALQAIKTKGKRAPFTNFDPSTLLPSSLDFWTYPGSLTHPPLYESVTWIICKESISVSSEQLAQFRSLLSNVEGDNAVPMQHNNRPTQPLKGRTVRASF
Chain of Carbonic anhydrase 12 (O43570 whole entry): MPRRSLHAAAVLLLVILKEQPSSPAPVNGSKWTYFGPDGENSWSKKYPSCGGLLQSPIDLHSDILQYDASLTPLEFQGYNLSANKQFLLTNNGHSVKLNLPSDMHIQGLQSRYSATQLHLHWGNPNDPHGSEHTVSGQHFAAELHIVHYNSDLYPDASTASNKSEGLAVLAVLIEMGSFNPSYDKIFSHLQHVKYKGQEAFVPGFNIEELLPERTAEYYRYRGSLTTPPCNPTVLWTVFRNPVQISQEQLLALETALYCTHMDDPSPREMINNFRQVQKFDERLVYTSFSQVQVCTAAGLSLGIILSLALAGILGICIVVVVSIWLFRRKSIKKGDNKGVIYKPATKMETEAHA
Chain of Carbonic anhydrase 3 (P07451 whole entry, the tested form may be a part): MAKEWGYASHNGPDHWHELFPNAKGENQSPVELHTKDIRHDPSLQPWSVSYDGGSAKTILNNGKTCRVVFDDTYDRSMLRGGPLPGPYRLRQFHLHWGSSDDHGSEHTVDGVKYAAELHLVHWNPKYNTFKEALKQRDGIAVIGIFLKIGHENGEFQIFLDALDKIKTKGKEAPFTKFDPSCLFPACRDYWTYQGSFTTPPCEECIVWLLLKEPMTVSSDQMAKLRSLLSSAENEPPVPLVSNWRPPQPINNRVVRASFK

| SMILES | Kd (Carbonic anhydrase 2) [nM] | Kd (Carbonic anhydrase 7) [nM] | Kd (Carbonic anhydrase 4) [nM] | Kd (Carbonic anhydrase 9) [nM] | Kd (Carbonic anhydrase 3) [nM] | Kd [1] [nM] | Kd (Carbonic anhydrase 1) [nM] | Kd (Carbonic anhydrase 12) [nM] | Kd (Carbonic anhydrase 6) [nM] | Kd (Carbonic anhydrase 13) [nM] |
| --- | --- | --- | --- | --- | --- | --- | --- | --- | --- | --- |
| Cc1cc(N2CC(C(=O)N/N=C/c3ccc([N+](=O)[O-])cc3)CC2=O)c(Cl)c(C)c1S(N)(=O)=O (stereo not given) | 50 | 43 | 480 | 100 | ≥ 200000 | 18 | 330 | 1400 | 810 | 56 |
| Cc1cc(N2CC(c3n[nH]c(=S)n3-c3ccccc3)CC2=O)c(Cl)c(C)c1S(N)(=O)=O (stereo not given) | 33 | 8.7 |  | 89 | ≥ 200000 | 40 | 440 | 500 | 3100 | 17 |
| Cc1cc(NC(=O)C2CC(=O)N(c3ccccc3)C2)cc(C)c1S(N)(=O)=O (stereo not given) |  | 8300 | 6800 |  | ≥ 200000 |  | 1600 | ≥ 200000 | 45000 | 3900 |
| Cc1cc(C)cc(NC(=O)C2CC(=O)N(c3ccccc3)C2)c1 (stereo not given) | ≥ 200000 |  | ≥ 200000 | ≥ 200000 | ≥ 200000 | ≥ 200000 | ≥ 200000 | ≥ 200000 | ≥ 200000 | ≥ 200000 |
| Cc1cc(C)n(NC(=O)C2CC(=O)N(c3cc(C)c(S(N)(=O)=O)c(C)c3)C2)n1 (stereo not given) | 2000 | 33000 | 2000 | 2000 | ≥ 200000 | 500 | 2900 | 67000 | 29000 | 8300 |
| COc1ccc(/C=N/NC(=O)C2CC(=O)N(c3cc(C)c(S(N)(=O)=O)c(C)c3)C2)cc1 (stereo not given) | 2000 | 18000 | 2200 | 2000 | ≥ 200000 | 670 | 2000 | 18000 | 14000 | 21000 |
| Cc1cc(N2CC(C(=O)N/N=C/c3ccc(Br)cc3)CC2=O)c(Cl)c(C)c1S(N)(=O)=O (stereo not given) | 50 | 63 | 340 | 200 | ≥ 200000 | 7.7 | 560 | 1400 | 920 | 67 |
| NS(=O)(=O)c1ccc(NC(=O)C2CC(=O)N(c3cccc(Br)c3)C2)cc1 (stereo not given) | 190 | 170 | 810 | 56 | ≥ 200000 | 740 | 310 | 10000 | 2400 | 1100 |
| Cc1cc(N2CC(C(=O)N/N=C/c3ccc(Cl)cc3)CC2=O)cc(C)c1S(N)(=O)=O (stereo not given) | 2000 | ≥ 200000 | 18000 | 3300 | ≥ 200000 | 670 | 1700 | ≥ 200000 | 14000 | ≥ 200000 |
| Cc1cc(N2CC(c3n[nH]c(=S)o3)CC2=O)cc(C)c1S(N)(=O)=O (stereo not given) | 7700 | 20000 | 6900 | 3300 | ≥ 200000 | 2000 | 10000 | ≥ 200000 | 50000 | ≥ 200000 |
| Cc1cc(N2CC(c3n[nH]c(=S)o3)CC2=O)c(Cl)c(C)c1S(N)(=O)=O (stereo not given) | 100 | 130 |  | 67 | ≥ 200000 | 250 | 830 |  | 3300 | 100 |
| Cc1cc(N2CC(C(=O)NNC(=S)Nc3ccccc3)CC2=O)c(Cl)c(C)c1S(N)(=O)=O (stereo not given) | 32 | 100 |  | 100 |  | 200 | 360 | 360 | 2200 | 14 |
| Cc1cc(N2CC(C(=O)NN3CC(C(=O)O)CC3=O)CC2=O)cc(C)c1S(N)(=O)=O (stereo not given) | 7100 | 33000 | 9100 | 4000 | ≥ 200000 | 7700 | 13000 | 22000 | 83000 | 6700 |
| COC(=O)C1CC(=O)N(c2cc(C)c(S(N)(=O)=O)c(C)c2Cl)C1 (stereo not given) | 29 | 13 | 1000 | 100 | ≥ 200000 | 25 | 670 |  | 4800 | 14 |
| Cc1cc(NCC(CC(=O)O)c2n[nH]c(=S)n2-c2ccccc2)cc(C)c1S(N)(=O)=O (stereo not given) | 100000 | ≥ 200000 | ≥ 200000 |  |  | ≥ 200000 | 100000 | 50000 | ≥ 200000 | 33000 |
| COc1ccc(/C=N/NC(=O)C2CC(=O)N(c3cc(C)c(S(N)(=O)=O)c(C)c3Cl)C2)cc1 (stereo not given) | 56 | 16 | 180 | 77 | ≥ 200000 | 3.2 | 710 |  | 590 | 50 |
| Cc1cc(NCC(CC(=O)O)c2n[nH]c(=S)n2-c2ccccc2)c(Cl)c(C)c1S(N)(=O)=O (stereo not given) | 17000 | 7700 | 10000 | 1000 |  | 10000 | 40000 | 2500 | 10000 | 1400 |
| Cc1cc(N2CC(C(=O)NNC(=S)Nc3ccccc3)CC2=O)cc(C)c1S(N)(=O)=O (stereo not given) | 1100 | 6500 | 6900 | 1400 | ≥ 200000 | 770 | 910 | 5000 | ≥ 200000 | 1000 |
| NS(=O)(=O)c1ccc(NC(=O)C2CC(=O)N(c3ccc(Br)cc3)C2)cc1 (stereo not given) | 640 | 1500 | 5600 | 430 | ≥ 200000 | 3800 | 3300 | 39000 | 17000 | 3100 |
| COC(=O)C1CC(=O)N(c2cc(C)c(S(N)(=O)=O)c(C)c2)C1 (stereo not given) | 2000 | 3400 | 6700 | 3000 | ≥ 200000 | ≥ 200000 | 1500 |  | 50000 | 2000 |
| Cc1c(Br)c(N2CC(C(=O)NN)CC2=O)c(Br)c(C)c1S(N)(=O)=O (stereo not given) | ≥ 200000 | ≥ 200000 | ≥ 200000 | ≥ 200000 | ≥ 200000 | ≥ 200000 | ≥ 200000 | ≥ 200000 | ≥ 200000 | ≥ 200000 |
| Cc1cc(N2CC(C(=O)O)CC2=O)cc(C)c1S(=O)(=O)Cl (stereo not given) | ≥ 200000 | ≥ 200000 | ≥ 200000 | ≥ 200000 | ≥ 200000 | ≥ 200000 | ≥ 200000 | ≥ 200000 | ≥ 200000 | ≥ 200000 |
| Cc1c(Br)c(N2CC(C(=O)N/N=C/c3ccccc3)CC2=O)c(Br)c(C)c1S(N)(=O)=O (stereo not given) | ≥ 200000 | ≥ 200000 | ≥ 200000 | ≥ 200000 | ≥ 200000 | ≥ 200000 | ≥ 200000 | ≥ 200000 | ≥ 200000 | ≥ 200000 |
| NS(=O)(=O)c1ccc(NC(=O)C2CC(=O)N(c3ccccc3)C2)cc1 (stereo not given) | 88 | 110 | 850 | 53 | ≥ 200000 | 550 | 260 | 5600 | 3600 | 660 |
| Cc1cc(C)n(C(=O)C2CC(=O)N(c3cc(C)c(S(N)(=O)=O)c(C)c3Cl)C2)n1 (stereo not given) | 25 | 20 |  | 140 | ≥ 200000 | 13 | 250 | 1000 | 3300 |  |
| Cc1cc(N2CC(c3n[nH]c(=S)n3-c3ccccc3)CC2=O)cc(C)c1S(N)(=O)=O (stereo not given) | 2000 | 5400 | 7000 | 1400 | ≥ 200000 | 770 | 2500 | 10000 | 41000 | 2000 |
| Cc1cc(C)n(NC(=O)C2CC(=O)N(c3cc(C)c(S(N)(=O)=O)c(C)c3Cl)C2)n1 (stereo not given) | 20 | 25 |  | 100 |  | 100 | 1100 | 2000 | 3300 | 10 |
| Cc1cc(S(N)(=O)=O)c(C)cc1N1CC(C(=O)N/N=C/c2ccc([N+](=O)[O-])cc2)CC1=O (stereo not given) | 2100 | 1300 | 17000 | 1100 | ≥ 200000 | 28 | 6200 | 14000 | 9900 | 320 |
| NS(=O)(=O)c1ccc(NC(=O)C2CC(=O)N(c3ccccc3Br)C2)cc1 (stereo not given) | 87 | 51 | 400 | 38 | ≥ 200000 | 190 | 210 | 3500 | 3700 | 200 |
| Cc1c(Br)c(N2CC(C(=O)N/N=C/c3ccc([N+](=O)[O-])cc3)CC2=O)c(Br)c(C)c1S(N)(=O)=O (stereo not given) | ≥ 200000 |  |  |  |  |  | ≥ 200000 | ≥ 200000 |  | ≥ 200000 |
